From US20250032629A1, “NOVEL NUCLEOLIN-BINDING PEPTIDE AND USE THEREOF” (ANYGEN CO., LTD., priority 2020, published 2025)

How the values were obtained:
MCF-10A cells = experiment: Cell proliferation assay (WST-1), AGM-330-PTX; type: cell-based; conditions: Homo sapiens, 48 h
MDA-MB-231-luc cells = experiment: Tumor suppression in breast cancer xenograft model; type: in vivo, NPG mice; conditions: for average tumor volume: tail vein
Method: FIG. 14B is a schematic representation of the experimental protocol. Here, anesthetized 6-week-old […] NPG mice were inoculated with a 1:1 mix of Matrigel and 1×10^6 MDA-MB-231-luc cells into the mammary fat pad. […] Nuclei were stained with DAPI (blue), and the scale bar is 50 μm. Bar graphs represent the mean±SD, and statistical analyses were performed by one-way ANOVA with Dunnett's multiple comparison. *, **, and *** indicate P<0.05, P<0.01, and P<0.001, respectively. […]
All animal experiments were performed in accordance with IACUC guidelines (GIST-2019-040). For tumorigenesis experiments, anesthetized 6-week-old female NOD-scid Il2rg^−/− mice (NPG™, VITALSTAR) were inoculated in the mammary fat pad with 1×10^6 MDA-MB-231-luc cells in a volume of 100 μl (n=5˜6 for each group). After tumor cell inoculation, when the tumor volume reached approximately 100 mm^3, the mice were randomly divided into the following five groups: (i) control, (ii) low-dose paclitaxel (2 mg/kg), (iii) high-dose paclitaxel (10 mg/kg), (iv) AGM-330 (16.68 mg/kg or 8.34 mg/kg), and (v) AGM-330-PTX (19.05 mg/kg or 10.71 mg/kg). The tumor size was measured twice a week, and the tumor volume was calculated with the following formula:
For the bioluminescent imaging experiment, D-luciferin (150 mg/kg; PerkinElmer) was intraperitoneally injected into each mouse, and an IVIS 100 imaging system (Xenogen, Corporation, Alameda, CA) was used for bioluminescent monitoring. Mice were anesthetized with vaporized isoflurane (BK Pharm, Ilsan, Korea) and placed in an imaging chamber. After 10 min, each animal was imaged with an exposure time of 1 min. All bioluminescent image data were provided by Living Image software (version 4.5.2, PerkinElmer). Photons detected from tumors were converted to average radiance values (photon/see/cm^2/sr), which are quantitative data obtained from a region of intensity (ROI) and include the photons emitted by bioluminescent cells from an assigned rectangular area over the whole body of each mouse.
Following in vitro proliferation analysis on cancer lines, the present inventors investigated whether AGM-330t-PTX could be a potential therapeutic agent in vivo. The present inventors inoculated MDA-MB-231-luc cells into the mammary fat pad of NPG mice. After the subcutaneous tumors grew to 100 mm^3, comparative efficacy studies were performed by dividing the animals into five groups (n=5/group) treated with vehicle (PBS), AGM-330t (16.68 mg/kg), PTX (2 or 10 mg/kg, respectively) or AGM-330t-PTX (19.05 mg/kg) twice a week by tail vein injection (FIG. 14B). Tumor growth was monitored by measuring volumes twice a week with a caliber rule over the course of 3 weeks.
The present inventors also performed histological staining of the excised tumors, and an independent pathologist evaluated the slides.

CC(=O)O[C@H]1C(=O)[C@@]2(C)[C@H]([C@H](OC(=O)c3ccccc3)[C@]3(O)C[C@H](OC(=O)[C@H](O)[C@@H](NC(=O)c4ccccc4)c4ccccc4)C(C)=C1C3(C)C)[C@]1(OC(C)=O)CO[C@@H]1C[C@@H]2O [PTX, Paclitaxel, reference compound]
IC50 (MCF-10A cells): 22.1 µM
average tumor volume (MDA-MB-231-luc cells; 2 mg/kg twice a week, n=5): 1671±199 mm^3
final average tumor weight (MDA-MB-231-luc cells; 2 mg/kg, n=5): 2.1 ± 0.4 g
average tumor volume (MDA-MB-231-luc cells; 10 mg/kg twice a week, day 21, n=5): 988±78 mm^3
final average tumor weight (MDA-MB-231-luc cells; 10 mg/kg, n=5): 1.5 ± 0.1 g
